# In patent publication US20130029937A1, “TREATMENT OF SURFACTANTS” (SOLAEROMED INC., priority 2007, published 2013):
# What was measured:
# [1] = CBS dynamic cycling of BLES with added (oxidized) phospholipids; type: physicochemical, bovine; conditions: non-oxidized lipid in BLES containing cholesterol, exposure to ambient air
# Description: In this Example, the role of oxidized polyunsaturated phospholipids in causing cholesterol-dependent surfactant dysfunction was studied. Oxidation of surfactant by the Fenton-like reaction or in the presence of ROS in the inflamed lung results in the formation of lipid-peroxides with polyunsaturated phospholipids the principal target. […] This introduction of a hydrophilic group in the formerly hydrophobic region will disrupt lipid packing. […] This is consistent with peroxidized PLPC, CL and other polyunsaturated phospholipids present in surfactant causing dysfunction together with cholesterol. […]
# To ensure accurate mixing, additional lipids were added to lipid extracts of BLES or oxBLES as organic solutions. […] Phospholipid concentration was assessed using a phosphate assay (Gentaur Molecular Products, Kampenhout, Belgium) after liberation of free phosphate (Duck-Chong C G (1979) A rapid sensitive method for determining phospholipid phosphorus involving digestion with magnesium nitrate. Lipids 14: 492-497). […] BLES contained 2.60% cholesterol (w/w phospholipids) as determined using an enzymatic assay for cholesterol (Amplex Red Cholesterol Assay, Invitrogen, Eugene, Oreg., USA). hSP-A was added to dried films when indicated to a final concentration of 5% (w/w phospholipids). […]
# [2] = captive bubble surfactometer (CBS), oxidized BLES with added cholesterol; type: physicochemical, cattle; conditions: MβCD (20 mmol) in the aqueous phase
# Experimental: In a model study, 0, 5 and 10 weight percent cholesterol was added to a ROS-exposed cattle lipid surfactant extract as an example of how even a normal (physiological) amount of cholesterol renders surfactant exposed to ROS and its derivatives dysfunctional; the function of the surfactant model was determined in a captive bubble surfactometer (CBS).
# Surface activity of surfactant was determined with a computer-controlled captive bubble surfactometer (CBS) as described in detail by Gunasekara et al. (Gunasekara L, Schoel W M, Schürch S & Amrein M W (2008) A comparative study of mechanisms of surfactant inhibition. BBA—Biomembranes 1778: 433-444), with two important changes: 1) A transparent capillary was used to deposit a ˜1.0 μL bolus of 27 mg/mL surfactant near the air-buffer interface. The quantity and concentration of surfactant were chosen to minimize effects caused by insufficient surfactant or bulk phase adsorption. This amount of native BLES reliably reproduces minimum and maximum surface tensions as measured in situ at functional reserve capacity and total lung capacity (<1 mN/m and ˜30 mN/m, respectively) (Bachofen H & Schtirch S (2001) Alveolar surface forces and lung architecture. Comparative Biochemistry and Physiology—Part A: Molecular & Integrative Physiology 129: 183-193). […]
# [3] = murine model of acute lung injury (acid injury), MβCD aerosol, surfactant function; type: in vivo, mice
# Description: In this study, a murine model of acute lung injury (ALI), the earliest phase of ARDS, was created by acid injury of the lung according to published procedures (Allen, G. B. et al. Neither fibrin nor plasminogen activator inhibitor-1 deficiency protects lung function in a mouse model of acute lung injury. American Journal of Physiology-Lung Cellular and Molecular Physiology 296, L277-L285 (2009)) and analyzed with respect to lung mechanics, oxygenation, lung histology, lung ultrastructure, surfactant function and composition (FIGS. 3A-E). Elastance (or its inverse, compliance) and pressure-volume curves are commonly used to assess lung function in ALI/ARDS (JONSON, B. et al. Pressure-volume curves and compliance in acute lung injury. American journal of respiratory and critical care medicine 159, 1172-1178 (1999)).
Compound,surfactant function over time [1],surface tension [2],"surfactant function in vivo ([3]; in the lung, given as an aerosol)",minimum surface tension of surfactant ([3]; injured mice treated with an MβCD-aerosol) [mN/m]
"CCCCC/C=C\C/C=C\CCCCCCCC(=O)OC[C@H](COP(=O)(O)OCC(O)COP(=O)(O)OC[C@H](COC(=O)CCCCCCC/C=C\C/C=C\CCCCC)OC(=O)CCCCCCC/C=C\C/C=C\CCCCC)OC(=O)CCCCCCC/C=C\C/C=C\CCCCC (some centres unmarked) [CL, 1′,3′-Bis[1,2-dilinoleoyl-sn-glycero-3-phospho]-sn-glycerol]",became dysfunctional after several hours,–,–,–
"CCCCC/C=C\C/C=C\CCCCCCCC(=O)O[C@H](COC(=O)CCCCCCCCCCCCCCC)COP(=O)([O-])OCC[N+](C)(C)C [PLPC, 1-palmitoyl-2-linoleoyl-sn-glycero-3-phosphocholine]",became dysfunctional after several hours,–,–,–
methyl-β-cyclodextrin [MβCD],–,almost zero,can restore surfactant function,< 10
